Experimental data reported in ChEMBL document CHEMBL1201862, “PubChem BioAssay data set” (2004).
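Cells were grown in 96-well plates and exposed to each compound for 48 hours at five concentrations; endpoints were interpolated linearly between bracketing concentrations, or set to the highest concentration if not reached. Here, GI50 denotes the concentration required for 50% inhibition of growth.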 Active and inactive are the calls of the source. Rule as the data show it: active = GI50 up to about 1.1 µM and inactive = higher.

What was measured:
Assay in all cases: NCI anticancer screen, dose series, 48 h
[1] = test system: IGROV-1
[2] = test system: SF-268
[3] = test system: SK-MEL-2
[4] = test system: MOLT-4
[5] = test system: HOP-62
[6] = test system: OVCAR-5
[7] = test system: HCT-116
[8] = test system: LOX IMVI
[9] = test system: NCI-H226
[10] = test system: HOP-92
[11] = test system: OVCAR-3
[12] = test system: OVCAR-4
[13] = test system: MDA-MB-435
[14] = test system: PC-3
[15] = test system: ACHN
[16] = test system: DU-145
[17] = test system: A549
[18] = test system: SR
[19] = test system: HCT-15
[20] = test system: SF-539

SMILES | GI50 [1] | GI50 [2] | GI50 [3] | GI50 [4] | GI50 [5] | GI50 [6] | GI50 [7] | GI50 [8] | GI50 [9] | GI50 [10] | GI50 [11] | GI50 [12] | GI50 [13] | GI50 [14] | GI50 [15] | GI50 [16] | GI50 [17] | GI50 [18] | GI50 [19] [µM] | GI50 [20]
O=C(Nc1ccc2nc(-c3ccccc3)cn2c1)Oc1ccccc1 | 57.3 µM (inactive) | > 100 µM (inactive) | 46.7 µM (inactive) | 40.6 µM (inactive) | > 100 µM (inactive) | 78.2 µM (inactive) | 45.9 µM (inactive) | 52 µM (inactive) | > 100 µM (inactive) | > 100 µM (inactive) | 38.6 µM (inactive) | 78.3 µM (inactive) | 13.9 µM (inactive) | > 100 µM (inactive) | > 100 µM (inactive) | 41.7 µM (inactive) | 55.5 µM (inactive) | 19 µM (inactive) | 45.1 | 
C=C1CC2(CC(c3ccccc3Cl)OC(c3ccccc3Cl)C2)OC1=O (centres undefined) | 2.02 µM (inactive) | 2.27 µM (inactive) | 3.43 µM (inactive) | 2.4 µM (inactive) | 8.05 µM (inactive) | 8.73 µM (inactive) | 1.76 µM (inactive) | 1.38 µM (inactive) | 8.69 µM (inactive) | 1.87 µM (inactive) | 2.91 µM (inactive) | 3.9 µM (inactive) | 1.8 µM (inactive) | 2.89 µM (inactive) | 4.51 µM (inactive) | 6.87 µM (inactive) | 7.74 µM (inactive) | 2.52 µM (inactive) | 2.56 | 1.96 µM (inactive)
Cc1cc2cc3ccccc3cc2c(=O)[nH]1 | > 10 µM (inactive) | > 10 µM (inactive) |  | > 10 µM (inactive) |  | > 10 µM (inactive) | > 10 µM (inactive) | > 10 µM (inactive) | > 10 µM (inactive) | > 10 µM (inactive) | > 10 µM (inactive) | > 10 µM (inactive) | > 10 µM (inactive) | > 10 µM (inactive) | > 10 µM (inactive) | > 10 µM (inactive) | > 10 µM (inactive) | > 10 µM (inactive) |  | > 10 µM (inactive)
COc1cc(C2SCC(=O)N2c2ccc(-n3c(-c4ccccc4)nc4ccccc4c3=O)cc2)ccc1O (centres undefined) | > 10 µM (inactive) | 32.4 µM (inactive) | > 100 µM (inactive) | 24.2 µM (inactive) | > 100 µM (inactive) | > 100 µM (inactive) | 50.1 µM (inactive) | 54.6 µM (inactive) | 5.01 µM (inactive) | 13.3 µM (inactive) | > 100 µM (inactive) | 65.6 µM (inactive) | > 100 µM (inactive) | > 100 µM (inactive) | > 100 µM (inactive) | > 100 µM (inactive) | 74.8 µM (inactive) | 26 µM (inactive) | 64.1 | > 100 µM (inactive)
CC1OC(OC2C(OC(=O)[C@]34CCC(C)(C)C[C@H]3C3=CC[C@@H]5[C@@]6(C)CC[C@H](OC7OC(C(=O)O)C(O)C(O)C7O)C(C)(C)[C@@H]6CC[C@@]5(C)[C@]3(C)C[C@H]4O)OCC(O)C2O)C(O)C(OC2OCC(O)(CO)C2O)C1OC1OCC(O)C(O)C1O (some centres undefined) | 16 µM (inactive) | 17.9 µM (inactive) | 6.7 µM (inactive) | 13.6 µM (inactive) | 16.1 µM (inactive) | 10.8 µM (inactive) | 7.19 µM (inactive) | 13.7 µM (inactive) | 10.9 µM (inactive) | 12.1 µM (inactive) | 14 µM (inactive) | 10.5 µM (inactive) | 6.59 µM (inactive) | 8.55 µM (inactive) | 5.15 µM (inactive) | 12.9 µM (inactive) | 3.9 µM (inactive) | 3.94 µM (inactive) | 16.4 | 
COc1cc2c(/C=C3/C(=O)Nc4ccc(Cl)cc43)c(Cl)n(Cc3ccccc3)c2cc1C | 3.29 µM (inactive) | 6.19 µM (inactive) | 6.21 µM (inactive) | 2.26 µM (inactive) | 2.11 µM (inactive) | 2.51 µM (inactive) | 3.81 µM (inactive) | 3.57 µM (inactive) | 2.81 µM (inactive) | 5.51 µM (inactive) | 1.98 µM (inactive) | 1.95 µM (inactive) | 2.43 µM (inactive) | 5.89 µM (inactive) | 2.41 µM (inactive) | 3.9 µM (inactive) | 3.27 µM (inactive) | 2.72 µM (inactive) | 4.01 | 2.94 µM (inactive)
CN1CCN(CCn2c3c4ccccc4ccc3c3oc(=O)c4ccccc4c32)CC1 | 13.2 µM (inactive) | 6 µM (inactive) | 13.5 µM (inactive) | 1.5 µM (inactive) | 2.07 µM (inactive) | 5.74 µM (inactive) | 1.88 µM (inactive) |  | 16.6 µM (inactive) | 5.85 µM (inactive) | 10.6 µM (inactive) | 2.26 µM (inactive) | 1.88 µM (inactive) | 2.03 µM (inactive) | 3.05 µM (inactive) | > 10 µM (inactive) | 3.97 µM (inactive) | 1.5 µM (inactive) | 2.72 | 1.65 µM (inactive)
